Test results: patent US4001327A, “Novel quaternary salts and method” (The Regents of the University of Michigan, priority 1973, dated 1977)

Experiments:
[1] = described by Lucchesi et al. 1968; undesirable side-effect of prior art compound; cited from earlier work
[2] = system: excised hearts perfused by donor dog; assay: Oxygen consumption of excised hearts perfused with whole blood from a donor dog; format: in vivo; conditions: 10 mg./kg. intravenously to 5 donor dogs; value before treatment 3.1 ± 0.2; statistically significant (p<0.01) reduction
Experimental: In a separate assay, hearts are excised from anesthetized animals and perfused via the aorta at a constant pressure with oxygenated whole blood supplied by a donor dog connected to the heart. Oxygen consumption is calculated and expressed as ml./min./100 g. of the myocardium. The donor dogs are then treated intravenously with the selected dose of the test compound and the mean oxygen consumption value again calculated. The test compound is rated active if it effects a statistically significant reduction in that value.

[3] = system: mongrel dogs; assay: Myocardial oxygen consumption, left coronary arteries perfused with arterial blood at constant pressure, anesthetized dogs; format: in vivo, dog; conditions: 10 mg./kg. intravenously prior to perfusion; 5 dogs; mean control 11.7 ± 1.9; statistically significant (p<0.05) reduction
Experimental: A group of 5 mongrel dogs is anesthetized and thoractomized by the procedure described in the preceding assay and the left anterior descending and circumflex coronary arteries are cannulated and perfused with arterial blood at a constant pressure. Coronary arterial and venous blood samples are collected and their oxygen content measured. Myocardial oxygen consumption is calculated and expressed as ml./min./100 g. of the left ventricle. the mean control oxygen consumption in these 5 animals is 11.7 ± 1.9.
In a second group of 5 animals, prepared as described above, the selected dose of the test compound is administered intravenously prior to perfusion. The myocardial oxygen consumption is calculated and compared with the corresponding value in the control group. A compound is rated active if it effects a statistically significant reduction in the myocardial oxygen consumption observed in the control group.

[4] = system: mongrel dogs; assay: Epicardial ST segment elevation (ΣST) after 10-minute coronary artery branch occlusion in anesthetized dogs; format: in vivo, dog; conditions: 10 mg./kg. intravenously 15 minutes prior to the second 10-minute occlusion; control ΣST 34.8 ± 4.9 mV
Experimental: A group of 10 mongrel dogs, weighing 11-19 kg., is anesthetized by the intravenous administration of 30 mg./kg. of pentobarbital sodium and breathing maintained by means of a Harvard respirator. A thoractomy is performed through the fifth left intercostal space; the heart is suspended in a pericardial cradle; a branch of the left anterior descending coronary artery is dissected free and a suture placed under that vessel. Occlusion of that arterial branch is accomplished by passing the free ends of the suture through a short section of polyethylene tubing and pressing the tubing against the vessel while exerting traction on the free ends of the suture. Termination of the occlusion is achieved by releasing the suture and pulling the tube away from the vessel.
The degree of myocardial ischemic injury resulting from occlusion of the artery is determined by the epicardial electrocardiographic method described by Maroko et al., Circulation, 43, 67-82 (1971). […] All surface collateral vessels are ligated and the unipolar electrograms from the six epicardial leads and the Lead II electrocardiogram are recorded on a Grass model 7 polygraph. […]
The reproducibility of the method with respect to the magnitude of ΣST is determined by successive 10-minute occlusions in a group of five dogs. […]

In the case of `CC[N+](C)(CC)CC(O)COc1cccc2ccccc12` (stereo not shown) [1-(N,N-diethylamino)-3-(1-naphthoxy)propan-2-ol methiodide], the local anesthetic activity [1] is listed as “local anesthetic activity”.
For `CC(C)[N+](C)(C)CC(O)COc1cccc2ccccc12` (stereo not shown) [1-(N-isopropyl-N-methylamino)-3-(1-naphthoxy)propan-2-ol methochloride], the “mean oxygen consumption value” [2] was 2.1 ± 0.1 ml./min./100 g. of the myocard, the myocardial oxygen consumption [3] was 7.6 ± 1.1 ml./min./100 g. of the left ve and the “sum of the ST segment elevation in the six epicardial leads (ΣST)” value [4] was 11.3 ± 2.1 mV.
